Assays:
PC-3 = experiment: MTT proliferation assay, PC-3; type: cell-based, human; details: for IC50: Homo sapiens, PC-3, MTT, 72 h, read-out: IC50 (μM) PC-3
From the text: (§1) The antiproliferative and anti-invasive activities of compounds 1-14 were quantified using MTT and cell invasion assay kits, respectively. Latrunculin A (compound 1) was used as a positive control in all biological assays, because it is known to be an actin polymerization inhibitor, with cytotoxic, antiproliferative, and anti-invasive activities. The 3-[4,5-dimethylthiazol-2-yl]-2,5-diphenyl tetrazolium bromide (MTT) assay selectively detects living cells in a quantitative, colorimetric fashion, based on a living cell's ability to reduce MTT to an insoluble, purple formazan dye. The MTT assay is routinely used to assess cytotoxicity and proliferation inhibition activities. The antiproliferative activities of compounds 1-14 were measured against two human mammary gland adenocarcinoma cell lines, MCF7 and MDA-MB-231, and against human prostate cancer cells PC-3 at five different doses (0.1, 0.5, 1, 10, and 50 μM). While many of the semisynthetic latrunculins had similar activity levels, some had greater activity than compound 1. […] Although the MDA-MB-231 cells were more resistant than MCF7 against most latrunculin derivatives tested, compound 14 had potent activity against both cell lines.
(§2) MTT Proliferation Assay. The growth of MCF7, MDA-MB-231, and PC-3 cancer cell lines was measured using an MTT kit (TACS™, TREVIGEN®, Inc.). Exponentially growing cells were plated in a 96-well plate at a density of 8×10^3 cells per well, and allowed to attach for 24 h. Complete growth medium was then replaced with 100 μL of RPMI serum-free medium containing various concentrations (50, 10, 1, 0.5, 0.1 μM) of the particular test compound. Culture continued at 37° C. under 5% CO2. After 72 h of culture, the cells were treated with MTT solution (10 μL/well) at 37° C. for 4 h. The color reaction was stopped by adding solubilization/stop solution (100 μL/well). Incubation continued at 37° C. continued to completely dissolve the formazan dye product. Absorbance of the samples was determined at 570 nm with an ELISA plate reader (BioTek, VT). The number of cells per well was calculated against a standard curve that had been prepared by plating various concentrations of cells, as determined by hemocytometer, at the start of each experiment. IC50 for each compound was calculated using a nonlinear regression curve fit of log concentration versus the number of cells/well, using GraphPad Prism 5.0 (GraphPad Software, La Jolla, Calif.).

MDA-MB-231 cells = experiment: Cultrex BME cell invasion assay; type: cell-based, human; details: for fold more active against cell invasion than latrunculin A (compound 1): 0.5 μM; for anti-invasive activity compared with compound 1: 1 and 0.5 μM doses
Method: The anti-invasive activities of compounds 1-14 were measured using a 96 well basement membrane extract (BME) cell invasion assay kit against the highly metastatic MDA-MB-231 cells. This assay employs a simplified Boyden Chamber with a polyethylene terephthalate membrane (8 μm pore size). Cell invasion was quantified using calcein-acetomethylester (calcein-AM). Cells internalize calcein-AM; intracellular esterases then cleave the acetomethylester moiety to generate free calcein. Free calcein fluoresces brightly. This fluorescence may be used to quantify the number of cells that have invaded across the BME. To correlate the anti-invasive activities of the latrunculin A derivatives with their actin-disrupting activities, compounds 1-14 were each tested at non-toxic concentrations. […] Accordingly, all compounds were tested at 0.1, 0.5, and 1.0 μM. Compound 3 killed 17% of MDA-MB-231 cells at 1.0 μM, while the same dose of compound 3 inhibited 95% of MDA-MB-231 cells' invasion. […] The anti-invasive activities of compounds 1-14 are attributed primarily to the inhibition of actin polymerization, not to cell death per se.
Cultrex® Cell Invasion Assay. Anti-invasive activities were measured using Trevigen's Cultrex® Cell Invasion Assay as described in K. Tamilarasan et al., BMC Cell Biol. 2006, 7, 17-30; and P. Borghesani et al., Development. 2002, 6, 1435-1442. About 50 μL of basement membrane extract (BME) coat was added to each well. After incubation for 4 h at 37° C. under 5% CO2, 50,000 MDA-MB-231 cells in 50 μL of serum free RPMI medium were added to each well in the top chamber, along with the test compound at one of several concentrations (0.1, 0.5, 1 μM). About 150 μL of RPMI medium was added to the lower chamber in 10% FBS and penicillin/streptomycin, using fibronectin ([…]) and N-formyl-met-leu-phe (10 nM) as chemoattractants. Cells were allowed to migrate to the lower chamber at 37° C. under 5% CO2. After 24 h, the top and bottom chambers were aspirated and washed with the washing buffer that had been supplied with the kit. About 100 μL of Cell Dissociation Solution/Calcein-AM solution was added to the bottom chamber, and the cells were incubated at 37° C. under CO2 for 1 h. Briefly, the cells internalize calcein-AM, and then the intracellular esterases cleave the AM moiety to generate free calcein. […] The number of cells that had invaded through the BME coat was calculated using a standard curve.

MCF7 = experiment: MTT proliferation assay, MCF7; type: cell-based, human; details: for IC50: Homo sapiens, MCF7, MTT, 72 h, mean ± SEM, read-out: IC50 (μM) MCF7
From the text: as §1, §2

MDA-MB-231 = experiment: MTT proliferation assay, MDA-MB-231; type: cell-based, human; details: for IC50: Homo sapiens, MDA-MB-231, MTT, 72 h, mean ± SEM, read-out: IC50 (μM) MDA-MB-231
From the text: as §1, §2

pyrene-conjugated actin = target: T1, pyrene-conjugated actin (Oryctolagus cuniculus, UniProt P68135); experiment: Pyrene actin polymerization assay; type: biochemical; details: for inhibition at 0.1 µM: 100 nM, read-out: Actin polymerization inhibition (%) 100 nM; for inhibition at 0.1 µM / inhibition at 1 µM: compared to vehicle control (DMSO); for inhibition at 1 µM: read-out: Actin polymerization inhibition (%) 1 μM; for IC50: mean ± SEM, triplicate
T1 construct: purchased Cytoskeleton, Denver, Colo
Method: An actin polymerization kit was used to assess the direct actin-binding activity of each analogue at two concentrations: 100 nM and 1 μM. This kit is based on the enhanced fluorescence of pyrene-conjugated actin that occurs during polymerization. When pyrene-G-actin (monomer) forms pyrene-F-actin, fluorescence is enhanced. The enhanced fluorescence is used to follow polymerization over time. Table 2 lists activities as the percentage of actin polymerization inhibition, compared to the negative vehicle control (DMSO), along with calculated IC50.
Pyrene-Actin Polymerization Assays. Actin polymerization assays were performed in accordance with the manufacturer's instructions (Cytoskeleton, Denver, Colo.). Briefly, […] final concentration of monomeric actin (1:10 pyrene labeled) was incubated on ice for 10 min with one of various concentrations of one of the latrunculin derivatives. Samples were then equilibrated 10 min in an ELISA plate reader (BioTek, VT), after which polymerization was induced by adding KCl, MgCl2, and ATP. Compounds 1-14 were tested at 0.1, 0.5, 1.0, and 10 μM. The IC50 for each compound was calculated using GraphPad Prism 5.0.
Pyrene-actin polymerization assays. Actin polymerization inhibitory activity is assessed using the Cytoskeleton Actin Polymerization kit (Cytoskeleton, Denver, Colo.). Briefly, […] (final concentration) of monomeric actin (1:10 pyrene labeled) is incubated on ice for 10 min with one of various concentrations of the test latrunculin compound. Samples are equilibrated 10 min in an ELISA plate reader (BioTek, VT), after which polymerization is induced by adding KCl, MgCl2, and ATP. Compounds are tested at 0.1, 0.5, 1.0, and 10 μM. The IC50 for each compound is calculated using GraphPad Prism 5.0.

array of kinases = experiment: Kinase profiling; type: binding; details: any kinase tested
Method: Latrunculins B and H (compounds 20 and 14, respectively) were tested in a panel of assays including ApoE secretion, anti-angiogenesis, G2/M, Wnt pathway, insulin secretion, and an array of kinase profiling. The G2/M assays include HeLa cell proliferation, apoptosis, DNA content, and condensation, cyclin B, and phosphor-histone H3. […] Alkaline phosphatases may perhaps be a target of the anti-invasive latrunculin 11.

[1] = tested on: microvessel density marker CD31 in endothelial colony forming cells (ECFCs); experiment: Angiogenesis inhibition assay (CD31 in ECFCs); type: cell-based
Method: Effects on Angiogenesis. Angiogenesis inhibition assays were conducted using endothelial colony forming cells (ECFCs). The microvessel density marker CD31 was quantified using confocal laser scanning microscopy and immunohistochemistry.

[2] = tested on: alkaline phosphatase in HuADSC cells; experiment: Alkaline phosphatase in HuADSC cells; type: cell-based
β-catenin in C2C12 cells = experiment: Wnt/β-catenin signaling, β-catenin levels in C2C12 cells; type: cell-based
From the text: (§3) Effects on Wnt/β-catenin. […] These two compounds affected both alkaline phosphatase and β-catenin levels in C2C12 cells.

[3] = tested on: alkaline phosphatase in C2C12 cells; experiment: Alkaline phosphatase in C2C12 cells (Wnt pathway); type: cell-based
From the text: as §3

HeLa cells = experiment: HeLa cell G2/M assays; type: cell-based; details: less active than compound 11
From the text: This assay measures HeLa cell proliferation, apoptosis, DNA content and condensation, cyclin B, and phosphor-histone H3.

[4] = tested on: prostate cancer cells PC-3M-CT+; details: 100 nM dose; without cytotoxicity; cited from earlier work
[5] = tested on: breast, CNS, colon, lung, melanoma, ovarian, and renal cancer cells; experiment: Antiproliferative testing against 60 cell lines (NSC compounds); type: cell-based

C/C1=C/C(=O)O[C@@H]2C[C@@H](CC[C@H](C)/C=C\C=C\CC1)O[C@@](O)([C@@H]1CSC(=O)N1Cc1ccccc1)C2 [Compound 13, N-Benzyllatrunculin A]
IC50 (PC-3): 3.8 µM
fold more active against cell invasion than latrunculin A (compound 1) (MDA-MB-231 cells): 3.1 fold
IC50 (MCF7): 0.63 µM
IC50 (MDA-MB-231): 2.72 µM
inhibition at 0.1 µM (pyrene-conjugated actin): 24%
inhibition at 1 µM (pyrene-conjugated actin): 64%
IC50 (pyrene-conjugated actin): 445 ± 79 nM

CCN1C(=O)SC[C@H]1[C@@]1(O)C[C@H]2C[C@@H](CC[C@H](C)/C=C\C=C\CC/C(C)=C\C(=O)O2)O1 [Compound 12, N-Ethyllatrunculin A]
IC50 (PC-3): 5.72 µM
anti-invasive activity compared with compound 1 (MDA-MB-231 cells): equipotent to compound 1
IC50 (MCF7): 0.95 µM
IC50 (MDA-MB-231): 7.19 µM
inhibition at 0.1 µM (pyrene-conjugated actin): 32%
inhibition at 1 µM (pyrene-conjugated actin): 70%
IC50 (pyrene-conjugated actin): 283 ± 51 nM

C/C1=C/C(=O)O[C@@H]2C[C@@H](CC[C@H](C)/C=C\CC1)O[C@@](O)([C@@H]1CSC(=O)N1)C2 [Compound 20, latrunculin B]
affinity toward kinases (array of kinases): Neither compound 20 nor compound 14 showed affinity toward any kinase tested
inhibition of CD31 in ECFCs ([1]; 2 μM): 100%
inhibition of CD31 in ECFCs ([1]; 10 μM): 100%
IC50 ([1]; read-out: IC50 CD31 in ECFCs): 43 nM
EC50 [2]: 141 nM
Wnt/β-catenin signaling (β-catenin in C2C12 cells): strongly inhibited
EC50 [3]: 91 nM
activity in G2_M assays compared with nocodazole (HeLa cells): greater activity than did nocodazole

C/C1=C/C(=O)O[C@@H]2C[C@@H](CC[C@H](C)/C=C\C=C\CC1)O[C@@](OC(=O)c1ccccc1)([C@@H]1CSC(=O)N1)C2 [Compound 4, 17-O-Benzoyllatrunculin A]
IC50 (PC-3): 6.44 µM
anti-invasive activity compared with compound 1 (MDA-MB-231 cells): equipotent to compound 1
IC50 (MCF7): 0.52 ± 0.14 µM
IC50 (MDA-MB-231): 5.05 ± 0.36 µM
inhibition at 0.1 µM (pyrene-conjugated actin): 23%
inhibition at 1 µM (pyrene-conjugated actin): 67%
IC50 (pyrene-conjugated actin): 466 ± 51 nM

latrunculin A 17-O-phenyl carbamate [Compound 18]
migration of PC-3M-CT+ cells [4]: inhibits the migration

C/C1=C/C(=O)O[C@@H]2C[C@@H](CC[C@H](C)/C=C\C=C\CC1)O[C@@](OCCc1ccccc1)([C@@H]1CSC(=O)N1)C2 [Compound 3, 17-O-Phenylethyllatrunculin A]
IC50 (PC-3): 1.22 µM
fold increase in activity against PC-3 versus compound 1 (PC-3; relative to compound 1): 3.2 fold
number of the 60 cell lines tested with antiproliferative activity ([5]; dose of 10 μM): 18
log10GI50 ([5]; five-points dose-response, range over active cell lines): −7.02 to −7.90
fold more active against cell invasion than latrunculin A (compound 1) (MDA-MB-231 cells): 3.3 fold
inhibition at 1 µM (MDA-MB-231 cells; Homo sapiens, MDA-MB-231, 1.0 μM): 95%
IC50 (MCF7): 0.1 ± 0.07 µM
fold increase in activity against MCF7 versus compound 1 (MCF7; relative to compound 1): 4.8 fold
MDA-MB-231 cells killed (MDA-MB-231; 1.0 μM): 17%
IC50 (MDA-MB-231): 2.71 ± 0.52 µM
inhibition at 0.1 µM (pyrene-conjugated actin): 31%
inhibition at 1 µM (pyrene-conjugated actin): 94%
IC50 (pyrene-conjugated actin): 184 ± 48 nM

Reference: patent publication US20110136880A1, “Latrunculin-Based Macrolides and Their Uses” (priority 2009, published 2011)
